Article PMC10247784, “Physiological activation of human and mouse bitter taste receptors by bile acids” (Communications Biology, 2023)
“And” between values parts separate entries of the source, which are not always exact repeats. Identical values can stand only once.

Target: T1, human TAS2R1 (Homo sapiens, UniProt Q9NYW7)
T1 construct: expressed in transfected cells; host or cells: HEK293T-Gα16gust44
T1 sequence (Q9NYW7 1-299): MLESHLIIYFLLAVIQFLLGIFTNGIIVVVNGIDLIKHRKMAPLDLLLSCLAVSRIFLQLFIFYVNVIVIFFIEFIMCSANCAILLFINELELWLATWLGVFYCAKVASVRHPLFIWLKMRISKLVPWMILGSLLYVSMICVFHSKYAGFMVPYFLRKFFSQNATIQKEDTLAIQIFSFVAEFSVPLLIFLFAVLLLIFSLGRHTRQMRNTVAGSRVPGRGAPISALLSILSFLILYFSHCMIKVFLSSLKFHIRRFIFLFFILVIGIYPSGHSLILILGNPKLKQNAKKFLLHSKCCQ
Experiment: Calcium imaging assay (FLIPR), HEK293T-Gα16gust44 cells transfected with human TAS2R1
Type: cell-based
Protocol: This set of bile acids was chosen because of their commercial availability in high purities, their diversity within the class of bile acids and their previous detection and quantitation in human blood. Stock solutions were prepared in DMSO.
As basal growth medium for the HEK293T-Gα16gust44 cell line[17],[59] served Dulbecco’s modified eagle medium (DMEM) (Thermo Fisher Scientific, Darmstadt, Germany) supplemented with 10 % fetal bovine serum (Sigma-Aldrich, Steinheim, Germany), 2 mM L-glutamine (Sigma-Aldrich, Steinheim, Germany), 100 units/ml penicillin (Sigma Aldrich, Steinheim, Germany) and 100 µg/ml streptomycin (Sigma Aldrich, Steinheim, Germany). Growth conditions were 37 °C, 5 % CO2 and saturated air-humidity[60].
HEK293T-Gα16gust44 cells were seeded on poly-D-lysine (10 µg/ml) coated 96-well plates to reach a confluence of 40-60 % the next day. For transient transfection 150 ng of plasmid DNA containing the receptor of interest and 0.3 µl lipofectamine 2000 (Thermo Fisher Scientific, Darmstadt, Germany) per well were used and transfection took place according to the manual of lipofectamine 2000. […] The empty vector DNA (mock) was transfected as negative control[14],[41].
Cells were loaded using the calcium-sensitive fluorescent dye Fluo-4-AM (Abcam, Cambridge, Great Britain) in the presence of 2.5 mM probenecid (Sigma-Aldrich, Steinheim, Germany) the day after transfection[13],[41]. 1 h after loading, cells were washed with C1 buffer using a BioTek Cell Washer, incubated in the dark for half an hour and washed again. For automated agonist application and measurement of fluorescence changes, a FLIPR^TETRA device (Molecular Devices, San José, United States) was used. Viability of cells was tested by application of 100 nM Somatostatin 14 (Bachem, Bubendorf, Switzerland)[42].
Measured data were negative control corrected by subtracting the signal of the mock-transfected cells and exported to Microsoft Excel using the FLIPR software ScreenWorks 4.2. In Microsoft Excel software, standardization of maximum fluorescence intensities to the basal fluorescence and normalization to the buffer-only control was done to calculate the relative fluorescence changes (ΔF/F).
Initial screening experiments performed in duplicate wells were confirmed by at least one replication and representative traces were selected for display. All dose-response relationships were determined by three independent experiments (biological replicates) performed in duplicates (technical replicates). Threshold concentrations, defined as lowest substance concentrations leading to statistically significant elevated fluorescence changes in receptor-transfected cells compared with empty vector-transfected cells, were determined using SigmaPlot with Student’s t-test to evaluate statistical significance (p < 0.01).

C[C@H](CCC(=O)O)[C@H]1CC[C@H]2[C@@H]3[C@H](O)C[C@@H]4C[C@H](O)CC[C@]4(C)[C@H]3C[C@H](O)[C@]12C [Cholic Acid, cholic acid]
Efficacy = maximal amplitude (ΔF/F) (TAS2R1, bile acids, mean): 0.1303 | Efficacy (maximal amplitude ΔF/F), individual data points (TAS2R1, bile acids, single replicates, listed as CA): 0.1237 and 0.1261 and 0.1411 | RLU (Time 0 s): 0 RLU | RLU (Time 2.015 s): -18.7915 RLU | RLU (Time 4.015 s): -20.7803 RLU | RLU (Time 6.015 s): -30.3104 RLU | RLU (Time 8.015 s): -41.5185 RLU | RLU (Time 12.015 s): -39.0663 RLU | RLU (Time 14.015 s): -19.7859 RLU | RLU (Time 16.015 s): -20.0825 RLU | RLU (Time 18.015 s): -33.1938 RLU | RLU (Time 18.796 s): -13.8993 RLU | RLU (Time 20.796 s): -32.113 RLU | RLU (Time 22.796 s): 0.5227 RLU | RLU (Time 24.796 s): 72.3168 RLU | RLU (Time 26.796 s): 179.01 RLU | RLU (Time 28.796 s): 273.224 RLU | RLU (Time 30.796 s): 414.499 RLU | RLU (Time 32.796 s): 487.46 RLU | RLU (Time 34.796 s): 561.258 RLU | RLU (Time 36.796 s): 600.729 RLU | RLU (Time 38.796 s): 652.414 RLU | RLU (Time 40.796 s): 646.063 RLU | RLU (Time 42.796 s): 688.029 RLU | RLU (Time 44.796 s): 718.237 RLU | RLU (Time 46.796 s): 709.989 RLU | RLU (Time 48.796 s): 747.058 RLU | RLU (Time 50.796 s): 725.497 RLU | RLU (Time 52.796 s): 721.254 RLU | RLU (Time 54.796 s): 750.511 RLU | RLU (Time 56.796 s): 763.129 RLU | RLU (Time 58.796 s): 754.05 RLU | RLU (Time 60.796 s): 736.769 RLU | RLU (Time 62.796 s): 752.117 RLU | RLU (Time 64.796 s): 729.251 RLU | RLU (Time 66.796 s): 754.307 RLU | RLU (Time 68.796 s): 748.849 RLU | RLU (Time 70.796 s): 729.014 RLU | RLU (Time 72.796 s): 724.252 RLU | RLU (Time 74.796 s): 721.996 RLU | RLU (Time 76.796 s): 719.984 RLU | RLU (Time 78.796 s): 701.138 RLU | RLU (Time 80.796 s): 695.956 RLU | RLU (Time 82.796 s): 687.252 RLU | RLU (Time 84.796 s): 702.818 RLU | RLU (Time 86.796 s): 660.013 RLU | RLU (Time 88.796 s): 675.614 RLU | RLU (Time 90.796 s): 671.255 RLU | RLU (Time 92.796 s): 645.369 RLU | RLU (Time 94.796 s): 658.13 RLU | RLU (Time 96.796 s): 614.664 RLU | RLU (Time 98.796 s): 601.791 RLU | RLU (Time 100.796 s): 605.799 RLU | RLU (Time 102.796 s): 574.755 RLU | RLU (Time 104.796 s): 579.697 RLU | RLU (Time 106.796 s): 554.874 RLU | RLU (Time 108.796 s): 536.028 RLU | RLU (Time 110.796 s): 503.66 RLU | RLU (Time 112.796 s): 530.288 RLU | RLU (Time 114.796 s): 510.693 RLU | RLU (Time 116.796 s): 515.676 RLU | RLU (Time 118.796 s): 477.82 RLU | RLU (Time 120.796 s): 483.731 RLU | RLU (Time 122.796 s): 479.051 RLU | RLU (Time 124.796 s): 471.711 RLU | RLU (Time 126.796 s): 440.735 RLU | RLU (Time 128.796 s): 427.776 RLU | RLU (Time 130.796 s): 428.214 RLU | RLU (Time 132.796 s): 399.927 RLU | RLU (Time 134.796 s): 369.335 RLU | RLU (Time 136.796 s): 379.68 RLU | RLU (Time 137.562 s): 368.206 RLU | RLU (Time 143.562 s): 326.335 RLU | RLU (Time 149.562 s): 297.638 RLU | RLU (Time 155.562 s): 268.743 RLU | RLU (Time 161.562 s): 228.213 RLU | RLU (Time 167.562 s): 217.461 RLU | RLU (Time 173.562 s): 182.798 RLU | RLU (Time 179.562 s): 176.247 RLU | RLU (Time 185.562 s): 110.643 RLU | RLU (Time 191.562 s): 119.586 RLU | RLU (Time 197.562 s): 108.976 RLU | RLU (Time 203.562 s): 106.514 RLU | RLU (Time 209.562 s): 78.0739 RLU | RLU (Time 215.562 s): 68.108 RLU | RLU (Time 221.562 s): 58.6538 RLU | RLU (Time 227.562 s): 6.904 RLU | RLU (Time 233.562 s): -20.3665 RLU | RLU (Time 239.562 s): 5.663 RLU | RLU (Time 245.562 s): 6.786 RLU | RLU (Time 293.562 s): -10.9022 RLU | RLU (Time 299.562 s): -34.1549 RLU | RLU (calcium trace, sheet TAS2R1, Time 305.562 s): -13.9937 RLU | RLU (calcium trace, sheet TAS2R1, Time 311.562 s): -29.8879 RLU | RLU (calcium trace, sheet TAS2R1, Time 317.562 s): -12.8001 RLU | RLU (calcium trace, sheet TAS2R1, Time 323.562 s): -27.2317 RLU | RLU (calcium trace, sheet TAS2R1, Time 329.562 s): -32.4678 RLU | RLU (calcium trace, sheet TAS2R1, Time 335.562 s): -20.5128 RLU | RLU (calcium trace, sheet TAS2R1, Time 341.562 s): -18.5874 RLU | RLU (calcium trace, sheet TAS2R1, Time 347.562 s): -51.1709 RLU | RLU (calcium trace, sheet TAS2R1, Time 353.562 s): -49.428 RLU | RLU (calcium trace, sheet TAS2R1, Time 359.562 s): -15.7961 RLU | Activation threshold concentration TAS2R1 (lowest concentration with significantly increased fluorescence vs empty vector (p < 0.01)): 100 µM and 100.00 µM
